Data: patent US9717725B2, “Use of opioid antagonists” (THE UNIVERSITY OF CHICAGO, priority 2005, dated 2017)
“Also recorded” adds a separate entry of the source.

What was measured:
[1] = test system: microvascular endothelial cells; experiment: VEGF induced proliferation of endothelial cells, combination (Example 10); format: cell-based; conditions: combination of methylnaltrexone and 5-FU
[2] = test system: SW 480 human colorectal cancer cell line; experiment: Effects on SW 480 cancer cell line
[3] = test system: human pulmonary microvascular endothelial cells (HPMVEC); experiment: Human pulmonary microvascular EC proliferation assay (CellTiter96 MTS); format: cell-based; conditions: for agonist-induced EC proliferation: serum-free media with agonist, MTS assay
PDGF receptor = experiment: Tyrosine phosphorylation of the PDGF receptor in EC (Example 9); format: cell-based, human; conditions: for induction of tyrosine phosphorylation of the PDGF receptor: EC
S1P3 receptor = experiment: Tyrosine phosphorylation of the S1P3 receptor in EC (Example 9); format: cell-based, human; conditions: for induction of tyrosine phosphorylation of the S1P3 receptor: EC
VEGF receptor 2 (Flk-1) = experiment: Tyrosine phosphorylation of VEGF receptor 2 (immunoprecipitation/immunoblot); format: cell-based, human; conditions: HPMVEC
RhoA = RhoA activation assay (RBD bead pull-down, immunoblot); format: cell-based, human; conditions: EC
VEGF receptor 1 (Flt-1) = experiment: Tyrosine phosphorylation of VEGF receptor 1 (immunoprecipitation/immunoblot); format: cell-based, human; conditions: HPMVEC
[4] = test system: human pulmonary microvascular endothelial cells (HPMVEC); experiment: Human pulmonary microvascular EC migration assay (Transwell); format: cell-based; conditions: for agonist-induced EC migration (% migration): agonist in lower chamber, Transwell
VEGF receptor = experiment: Tyrosine phosphorylation of the VEGF receptor in EC (Example 9); format: cell-based, human; conditions: for induction of tyrosine phosphorylation of the VEGF receptor: EC
mu-opioid receptor = mu-opioid receptor (Homo sapiens, UniProt P35372); experiment: Serine/threonine phosphorylation of the mu-opioid receptor in EC (Example 9); format: cell-based; conditions: for induction of serine/threonine phosphorylation of the mu-opioid receptor: EC
tumor = experiment: Study in human cancer patients (Examples 6-7); format: in vivo; conditions: antagonist orally 5 mg/kg/day for eight weeks with opioid and bevacizumab (Avastin)
[5] = J. Foss, et al.; cited from earlier work
tumors = experiment: Treatment of tumor-bearing mice (Examples 4-7); format: in vivo; conditions: eight weeks; for tumor growth and angiogenesis: antagonist orally 5 mg/kg/day with morphine 0.5 mg/kg/day; for angiogenesis and tumor growth, combination of opioid, opioid antagonist and anticancer agent: with morphine and bevacizumab (Avastin) 5 mg/kg every 14 days
[6] = test system: Lewis lung carcinoma (LLC) tumor; experiment: LLC flank tumor model, continuous MNTX infusion; format: in vivo, C57BL/6J mice; conditions: for appearance of macrometastases in the lungs / appearance of micrometastases in the lungs: continuous infusion 10 mg/kg/day
[7] = test system: Lewis lung carcinoma (LLC) cells; experiment: LLC cell proliferation in vitro; format: cell-based; conditions: treatment in vitro with methylnaltrexone
[8] = test system: Lewis lung carcinoma (LLC) cells; experiment: LLC cell invasion assay (Chemicon Cell Invasion Assay Kit); format: cell-based; conditions: methylnaltrexone (10 nM or 100 nM)
[9] = doses maintaining plasma levels about 25 and 150 ng/mL (Yuan et al.); cited from earlier work
[10] = test system: microvascular endothelial cells; experiment: VEGF induced migration of endothelial cells, combination (Example 10); format: cell-based; conditions: combination of methylnaltrexone and Bevacizumab
Flk-1 expression = conditions: morphine-treated mice versus controls (K. Gupta, personal communication); cited from earlier work
[11] = test system: proliferative retinopathy; conditions: sickle cell disease (Gupta et al., personal communication); cited from earlier work
[12] = pretreatment with MNTX 0.1 μM, 1 hour
[13] = summary statement, concentration dependence

mu-opioid receptor, sequence (P35372 whole entry): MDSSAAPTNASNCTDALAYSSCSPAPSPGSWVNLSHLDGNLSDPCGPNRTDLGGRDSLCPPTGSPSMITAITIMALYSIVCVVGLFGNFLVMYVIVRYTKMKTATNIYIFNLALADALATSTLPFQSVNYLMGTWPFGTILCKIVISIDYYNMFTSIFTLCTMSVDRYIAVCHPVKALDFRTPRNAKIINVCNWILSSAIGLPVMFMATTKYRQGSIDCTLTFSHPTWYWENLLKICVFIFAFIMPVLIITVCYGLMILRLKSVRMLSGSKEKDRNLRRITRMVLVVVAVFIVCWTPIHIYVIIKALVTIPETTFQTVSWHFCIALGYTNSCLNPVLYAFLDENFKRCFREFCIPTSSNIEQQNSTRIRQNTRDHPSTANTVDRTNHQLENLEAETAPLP

## O=c1[nH]cc(F)c(=O)[nH]1 [5-FU, 5-fluorouracil]
[1]
  inhibition of VEGF induced proliferation of endothelial cells by the combination: synergistically inhibit
[2]; Homo sapiens, SW480
  IC50: ~10 µM

## C[C@@H](NC(=O)[C@@H](N)Cc1ccc(O)cc1)C(=O)NCC(=O)N(C)[C@@H](Cc1ccccc1)C(=O)NCCO [DAMGO, [D-Ala^2, N-McPhe^4, Gly^5-ol]-enkephalin]
[3]
  agonist-induced EC proliferation: stimulate HPMVEC proliferation; also recorded: induced proliferation
PDGF receptor
  induction of tyrosine phosphorylation of the PDGF receptor: induced tyrosine phosphorylation
S1P3 receptor
  induction of tyrosine phosphorylation of the S1P3 receptor: induced tyrosine phosphorylation
VEGF receptor 2 (Flk-1)
  induction of tyrosine phosphorylation of VEGF receptor 2 (Flk-1): induce tyrosine phosphorylation
RhoA
  RhoA activation by agonist: stimulate RhoA activation
VEGF receptor 1 (Flt-1)
  induction of tyrosine phosphorylation of VEGF receptor 1 (Flt-1): induce tyrosine phosphorylation
[4]
  agonist-induced EC migration (% migration): induce HPMVEC migration; also recorded: induced
VEGF receptor
  induction of tyrosine phosphorylation of the VEGF receptor: induced tyrosine phosphorylation

## CCCCCCCCCCCCC/C=C/[C@@H](O)[C@@H](N)COP(=O)(O)O [S1P, sphingosine 1-phosphate]
[3]
  agonist-induced EC proliferation: induced proliferation
RhoA
  RhoA activation by agonist: activation
mu-opioid receptor
  induction of serine/threonine phosphorylation of the mu-opioid receptor: induced serine/threonine phosphorylation
[4]
  agonist-induced EC migration (% migration): induced

## C[C@H]1CN(C[C@H](Cc2ccccc2)C(=O)NCC(=O)O)CC[C@@]1(C)c1cccc(O)c1 [alvimopan]
tumor
  angiogenesis and tumor growth, combination of opioid, opioid antagonist and anticancer agent: enhanced result
[5]
  transpassage across the membrane: some transpassage
tumors
  tumor growth and angiogenesis: reduction in tumor growth and angiogenesis
  angiogenesis and tumor growth, combination of opioid, opioid antagonist and anticancer agent: enhanced result

## C[N@+]1(CC2CC2)CC[C@]23c4c5ccc(O)c4O[C@H]2C(=O)CC[C@@]3(O)[C@H]1C5 [methylnaltrexone, N-methylnaltrexone]
[3]; 100 nM MNTX, 100 nM agonist, 24 h
  attenuation of MS, DAMGO and VEGF stimulated HPMVEC proliferation: attenuated
[3]; [12]
  inhibition of S1P, VEGF, PDGF, morphine and DAMGO induced EC proliferation: inhibited
[3]; [13]
  inhibition of opioid- and growth factor-induced proliferation of endothelial cells: in a concentration dependent manner
PDGF receptor; MNTX pretreatment of EC
  attenuation of agonist induced PDGF receptor phosphorylation: attenuated
S1P3 receptor; MNTX pretreatment of EC
  attenuation of agonist induced S1P3 receptor phosphorylation: attenuated
tumor
  angiogenesis and tumor growth, combination of opioid, opioid antagonist and anticancer agent: enhanced result
[6]
  appearance of macrometastases in the lungs: attenuated
  appearance of micrometastases in the lungs: attenuated
[6]; listed as MNTX
  appearance of macrometastases in the lungs: attenuated; also recorded: inhibition; also recorded: decrease in lung macrometastases
  appearance of micrometastases in the lungs: attenuated; also recorded: inhibition
[6]; infusion 10 mg/kg/day, wild-type mice injected with LLC cells
  attenuation of tumor growth: up to 90%
tumors
  tumor growth and angiogenesis: reduction in tumor growth and angiogenesis
  angiogenesis and tumor growth, combination of opioid, opioid antagonist and anticancer agent: enhanced result
[7]
  reduction of LLC proliferation: significantly reduced; also recorded: dose-dependent inhibition
VEGF receptor 2 (Flk-1)
  attenuation of VEGF induced tyrosine phosphorylation of VEGF receptor 2: attenuates
  block of MS and DAMGO induced tyrosine phosphorylation of VEGF receptor 2 (Flk-1): blocked
RhoA; agonists morphine, DAMGO, VEGF (S1P, PDGF), listed as MNTX
  inhibition of agonist-induced RhoA activation: inhibited; also recorded: attenuated
[8]
  reduction of LLC invasion: significantly reduced; also recorded: dose-dependent inhibition
VEGF receptor 1 (Flt-1)
  attenuation of VEGF induced tyrosine phosphorylation of VEGF receptor 1: attenuates
  block of MS and DAMGO induced tyrosine phosphorylation of VEGF receptor 1 (Flt-1): blocked
mu-opioid receptor; MNTX pretreatment of EC
  attenuation of agonist induced mu-opioid receptor phosphorylation: attenuated
[1]
  inhibition of VEGF induced proliferation of endothelial cells by the combination: synergistically inhibit
[4]; 100 nM MNTX, 100 nM agonist, 18 hours
  inhibition of MS, DAMGO and VEGF induced HPMVEC migration: inhibited
[4]; [12]
  inhibition of S1P, VEGF, PDGF, morphine and DAMGO induced EC migration: inhibited
[4]; [13]
  inhibition of opioid- and growth factor-induced migration of endothelial cells: in a concentration dependent manner
[9]
  tolerability: well tolerated
VEGF receptor; MNTX pretreatment of EC
  attenuation of agonist induced VEGF receptor phosphorylation: attenuated
[2]; MNTX alone, P<0.01 compared to control
  antiproliferation activity: possesses antiproliferation activity
[2]; with 5-FU 10 μM, P<0.05 compared to 5-FU 10 μM only
  enhancement of 5-FU's tumoricidal effect: enhanced 5-FU's tumoricidal effect
[10]
  inhibition of VEGF induced migration of endothelial cells by the combination: synergistically inhibit

## CN1CC[C@]23c4c5ccc(O)c4O[C@H]2[C@@H](O)C=C[C@H]3[C@H]1C5 [morphine]
[3]
  agonist-induced EC proliferation: induced proliferation
[3]; listed as MS
  agonist-induced EC proliferation: stimulate HPMVEC proliferation
PDGF receptor
  induction of tyrosine phosphorylation of the PDGF receptor: induced tyrosine phosphorylation
S1P3 receptor
  induction of tyrosine phosphorylation of the S1P3 receptor: induced tyrosine phosphorylation
Flk-1 expression
  increase in F11 c-1 expression: 10 fold
VEGF receptor 2 (Flk-1)
  induction of tyrosine phosphorylation of VEGF receptor 2 (Flk-1): induce tyrosine phosphorylation
[11]
  induction of proliferative retinopathy: induced proliferative retinopathy
RhoA
  RhoA activation by agonist: stimulate RhoA activation
RhoA; listed as MS
  RhoA activation by agonist: stimulate RhoA activation
VEGF receptor 1 (Flt-1)
  induction of tyrosine phosphorylation of VEGF receptor 1 (Flt-1): induce tyrosine phosphorylation
[4]
  agonist-induced EC migration (% migration): induced
[4]; listed as MS
  agonist-induced EC migration (% migration): induce HPMVEC migration
VEGF receptor
  induction of tyrosine phosphorylation of the VEGF receptor: induced tyrosine phosphorylation

## Bevacizumab: anti-VEGF mab (Avastin, Genentech)
[10]
  inhibition of VEGF induced migration of endothelial cells by the combination: synergistically inhibit

## PDGF
[3]
  agonist-induced EC proliferation: induced proliferation
RhoA
  RhoA activation by agonist: activation
mu-opioid receptor
  induction of serine/threonine phosphorylation of the mu-opioid receptor: induced serine/threonine phosphorylation
[4]
  agonist-induced EC migration (% migration): induced

## VEGF
[3]
  agonist-induced EC proliferation: stimulate HPMVEC proliferation; also recorded: induced proliferation
RhoA
  RhoA activation by agonist: stimulate RhoA activation
mu-opioid receptor
  induction of serine/threonine phosphorylation of the mu-opioid receptor: induced serine/threonine phosphorylation
[4]
  agonist-induced EC migration (% migration): induce HPMVEC migration; also recorded: induced
